The results in this text go back to ChEMBL document CHEMBL3877309, “Determination of binding modes and binding constants for the complexes of 6H-pyrido[4,3-b]carbazole derivatives with DNA” (Bioorg Med Chem, 2017).

One data set relates to Salmonidae. Briefly: Binding affinity to salmon sperm DNA assessed as DNA intercalation at 0.04 mole fraction after 5 mins by UV-Vis spectroscopic method.
Data set [1] is described as follows: Cytotoxicity against mouse Sarcoma 180 cells assessed as reduction in cell viability after 72 hrs by MTT assay. Type of data set: functional, cell-based. Conditions: Sarcoma-180, 72 h. (In general: Tetrazolium assays rely on reduction of a dye to a coloured formazan, in cell work by metabolically active cells.)
A short description of data set [2]: Cytotoxicity against mouse NIH/3T3 cells assessed as reduction in cell viability after 72 hrs by MTT assay. The class given is toxicity, cell-based, NIH3T3.
Data set [3] can be described thus: Cytotoxicity against human HeLaS3 cells assessed as reduction in cell viability after 72 hrs by MTT assay. Type of data set: functional, cell-based. The settings on record: HeLa S3, 72 h.
The subject of a further data set is HeLa S3. In words: Selectivity ratio of IC50 for human HeLaS3 cells to IC50 for mouse Sarcoma 180 cells. Type of data set: functional.
Data set [4] can be described thus: Selectivity index, ratio of IC50 for mouse NIH/3T3 cells to IC50 for mouse Sarcoma 180 cells. Type of data set: functional.
The nature of data set [5]: Binding affinity to synthetic biotin-labeled 30-mer AT-rich duplex DNA in pH 7.4 EDTA buffer solution in presence of 0.05 M NaCl at 25 degC by QCM sensogram analysis.
The nature of data set [6]: Binding affinity to synthetic biotin-labeled 30-mer GC-rich duplex DNA in pH 7.4 EDTA buffer solution in presence of 0.05 M NaCl at 25 degC by QCM sensogram analysis.
Data set [7] can be described thus: Binding affinity to synthetic biotin-labeled 30-mer GC-rich duplex DNA in pH 7.4 EDTA buffer solution in presence of 50 mM NaCl at 25 degC by QCM sensogram analysis.
Data set [8] can be described thus: Binding affinity to synthetic biotin-labeled 30-mer GC-rich duplex DNA in pH 7.4 EDTA buffer solution in presence of 200 mM NaCl at 25 degC by QCM sensogram analysis.
Data set [9] is described as follows: Ratio of Ka for synthetic biotin-labeled 30-mer GC-rich duplex DNA in presence of 200 mM NaCl to Ka for synthetic biotin-labeled 30-mer GC-rich duplex DNA in presence of 50 mM NaCl.

Calls of active or inactive are those of the source. No cut-off for these calls is given here.

On to `Cc1c2c[n+](C)ccc2c(C(=O)NCCOCCN)c2[nH]c3ccccc3c12`, for which, in the data set on Salmonidae, the outcome was Active. Further, the values for the IC50 in data set [1] and in [3] were 48 µM and over 100 µM, respectively. Besides, the IC50 (usually the point on the concentration scale where inhibition reaches its midpoint) at 72 h in data set [2] amounted to 60 µM.
Turning to `Cc1c2cc[n+](CCOCCN)cc2c(C)c2c1[nH]c1ccccc12.[Cl-]`, the outcome in the data set on Salmonidae was Active. Further, the 50% inhibitory concentration (IC50) in data set [1] was found to be 0.8 µM. The concentration for half-maximal inhibition (IC50) at 72 h in data set [2] stood at 8.8 µM. Also, the “Ratio IC50” value in the data set with HeLa S3 is 13 - 37; in data set [4], 3 - 24.
Consider `Cc1c2cnccc2c(C(=O)NCCCCN)c2[nH]c3ccccc3c12`, for which the Ka worked out at 0.279 ×10⁵ /M in data set [5] and 0.733 ×10⁵ /M in data set [6].
`Cc1c2cnccc2c(C)c2c1c1ccccc1n2C`: the outcome with Salmonidae was Active. Also, the IC50 in [1] turned out to be 0.5 µM; in [3], 0.93 µM.
In the case of `CNC(=O)NCCNCCNC(=O)c1c2cc[n+](C)cc2c(C)c2c1[nH]c1ccccc12`, the 50% inhibitory concentration (IC50) was 78 µM in data set [1] and over 100 µM in data set [3]. The IC50 at 72 h in data set [2] was determined as 45 µM.
As to `Cc1c2c[n+](C)ccc2c(C(=O)NCCN)c2[nH]c3ccccc3c12`, in the data set on Salmonidae, the result was Active. The IC50 in data set [1] is 55 µM; in data set [3], over 100 µM. Besides, in data set [2], the IC50 at 72 h was found to be 70 µM.
With `CNC(=O)NCCNC(=O)c1c2cc[n+](C)cc2c(C)c2c1[nH]c1ccccc12`, in the data set on Salmonidae, the outcome was Active. Moreover, the IC50 in data set [1] and in data set [3] was over 100 µM each time. In addition, the IC50 at 72 h in [2] is over 100 µM.
On to `COC(=O)c1c2cc[n+](C)cc2c(C)c2c1[nH]c1ccccc12`, for which the outcome in the data set on Salmonidae was Active. For the same compound, the IC50 in [1] is 1 µM; in [3], 1.2 µM. For the same compound, the concentration for half-maximal inhibition (IC50) at 72 h in data set [2] was determined as 1.2 µM.
With `Cc1c2cc[n+](C)cc2c(C)c2c1[nH]c1ccccc12`, in the data set on Salmonidae, the result was Active. Moreover, the values for the IC50 in data set [1] and in data set [3] were 0.7 µM and 2.9 µM, respectively. In addition, the half-maximal inhibitory concentration (IC50) at 72 h in [2] is 2 µM.
Taken in the same sequence, the figures for `Cc1c2c[n+](C)ccc2c(C(=O)NCCCCCN)c2[nH]c3ccccc3c12` were “Active”, 21 µM, over 100 µM and 32 µM.
`Cc1c2cnccc2c(C(=O)NCCN)c2[nH]c3ccccc3c12`: the outcome in the data set with Salmonidae was Active. In addition, the IC50 came to 2.2 µM in [1] and 2.4 µM in data set [3]. Further, in data set [2], the concentration for half-maximal inhibition (IC50) at 72 h was 1.4 µM.
For `COC(=O)c1c2cc[n+](CCNCCN)cc2c(C)c2c1[nH]c1ccccc12`, in the data set on Salmonidae, the outcome was Active. Besides, the IC50 in data set [1] turned out to be 1.2 µM. For the same compound, the half-maximal inhibitory concentration (IC50) at 72 h in [2] is 1.87 µM.
`Cc1c2c[n+](CCN)ccc2cc2[nH]c3ccccc3c12`: the outcome in the data set with Salmonidae was Active. The Ka in data set [5] turned out to be 4.29 ×10⁵ /M; in data set [6] it was 8.33 ×10⁵ /M.
Turning to `Cc1c2c[n+](C)ccc2c(C(=O)NCCCCN)c2[nH]c3ccccc3c12`, the result in the data set with Salmonidae was Active. The IC50 in data set [1] and in data set [3] was over 100 µM in each case. The IC50 at 72 h in data set [2] was over 100 µM.
For `COC(=O)c1c2cc[n+](CCN)cc2c(C)c2c1[nH]c1ccccc12.[Cl-]`, the result in the data set with Salmonidae was Active. Also, in data set [1], the IC50 turned out to be 0.52 µM. The IC50 at 72 h in [2] is 0.78 µM. Besides, the “Ratio IC50” value with HeLa S3 was 13 - 37; in [4], 3 - 24.
Take `Cc1c2ccncc2c(C)c2c1[nH]c1ccc(O)cc12`: the outcome in the data set on Salmonidae was Active. Also, in data set [1], the IC50 was 0.44 µM. Also, the half-maximal inhibitory concentration (IC50) at 72 h in data set [2] came out at 0.9 µM.
For the compound `COc1ccc2[nH]c3c(C(=O)NCCN)c4ccncc4c(C)c3c2c1`, the IC50 in data set [3] was 1.04 µM.
Turning to `Cc1c2ccncc2c(C)c2c1[nH]c1ccccc12` [ELLIPTECINE], the outcome with Salmonidae was Active. For the same compound, the half-inhibitory concentration (IC50) is 2 µM in data set [1] and 2.1 µM in data set [3]. Further, in [2], the IC50 at 72 h was 0.3 µM.
Taken in the same sequence, the figures for `Cc1c2c[n+](C)ccc2c(C(=O)NCCCN)c2[nH]c3ccccc3c12` were “Active”, 26 µM, over 26 µM and 42 µM.
Consider `Cc1c2c[n+](CCCCCN)ccc2c(C)c2c1c1cc(O)ccc1n2C.[Cl-]`, for which the outcome in the data set with Salmonidae was Active. Besides, the IC50 in data set [1] amounted to 1.4 µM. Also, the “Ratio IC50” value with HeLa S3 is listed as 13 - 37; in [4], 3 - 24.
`Cc1c2c[n+](CCOCCN)ccc2c(C)c2c1c1cc(O)ccc1n2C`: the outcome in the data set with Salmonidae was Active. Moreover, the Ka in [5] was 102 ×10⁵ /M; in data set [6] it was 311 ×10⁵ /M; in data set [7], 311 ×10⁵ /M; in data set [8] it was 162 ×10⁵ /M. Further, the Ratio in data set [9] was 0.4 to 0.5.
Consider `CNC(=O)NCCOCCNC(=O)c1c2cc[n+](C)cc2c(C)c2c1[nH]c1ccccc12`, for which the result with Salmonidae was Active. Also, in data set [1], the concentration for half-maximal inhibition (IC50) was determined as 41 µM. Further, the half-maximal inhibitory concentration (IC50) at 72 h in [2] amounted to 18 µM.
For `COC(=O)c1c2cc[n+](CCOCCN)cc2c(C)c2c1[nH]c1ccccc12.[Cl-]`, the result in the data set on Salmonidae was Active. For the same compound, the IC50 in data set [1] turned out to be 1.12 µM. Also, the IC50 at 72 h in [2] came out at 1.75 µM. Moreover, the entries for the “Ratio IC50” value (with HeLa S3; in data set [4]) were 13 - 37 and 3 - 24, respectively.
For `CNC(=O)NCCNC(=O)c1c2ccncc2c(C)c2c1[nH]c1ccccc12`, the outcome with Salmonidae was Active. The IC50 in [1] and in data set [3] was 15 µM each time. For the same compound, in data set [2], the IC50 at 72 h worked out at 11 µM.
Regarding `CNC(=O)NCCCNC(=O)c1c2cc[n+](C)cc2c(C)c2c1[nH]c1ccccc12`, the result with Salmonidae was Active. Also, the 50% inhibitory concentration (IC50) in data set [1] is 34 µM; in data set [3], over 22 µM. In addition, in data set [2], the IC50 at 72 h was 31 µM.
In the case of `CNC(=O)NCCCCNC(=O)c1c2ccncc2c(C)c2c1[nH]c1ccccc12`, the figures for the Ka in data set [5] and in data set [6] were 0.185 ×10⁵ /M and 0.427 ×10⁵ /M, respectively.
Regarding `COc1ccc2[nH]c3c(C(=O)NCCN)c4cc[n+](C)cc4c(C)c3c2c1`, the outcome with Salmonidae was Active. In addition, the half-inhibitory concentration (IC50) in data set [1] is 58 µM; in data set [3], over 100 µM.
For `CNC(=O)NCCNC(=O)c1c2cc[n+](C)cc2c(C)c2c1[nH]c1ccc(OC)cc12`, in the data set with Salmonidae, the outcome was Active. Besides, the half-maximal inhibitory concentration (IC50) in [3] is 32 µM.
In the case of `CNC(=O)NCCOCC[n+]1ccc2c(C)c3[nH]c4ccc(O)cc4c3c(C)c2c1.[Cl-]`, the outcome in the data set on Salmonidae was Active. For the same compound, the concentration for half-maximal inhibition (IC50) in data set [1] is 2.2 µM. Moreover, the IC50 at 72 h in data set [2] was 5 µM. Besides, the “Ratio IC50” value is 13 - 37 in the data set on HeLa S3 and 3 - 24 in data set [4].
On to `CNC(=O)NCCNC(=O)c1c2ccncc2c(C)c2c1[nH]c1ccc(OC)cc12`, for which the 50% inhibitory concentration (IC50) in [3] is 7.6 µM.
For `Cc1c2cc[n+](CCOCCN)cc2c(C)c2c1[nH]c1ccc(O)cc12.[Cl-]`, the outcome in the data set on Salmonidae was Active. Also, the IC50 in data set [1] stood at 1 µM. Besides, the IC50 at 72 h in data set [2] stood at 2.4 µM. For the same compound, the figures for the “Ratio IC50” value (with HeLa S3; in data set [4]) were 13 - 37 and 3 - 24, respectively.
As for `CNC(=O)NCCCCCNC(=O)c1c2cc[n+](C)cc2c(C)c2c1[nH]c1ccccc12`, the result in the data set on Salmonidae was Active. In addition, the IC50 in data set [1] was 80 µM; in data set [3] it was over 100 µM. Also, in data set [2], the IC50 at 72 h was determined as 37 µM.
In the case of `CNC(=O)NCCOCC[n+]1ccc2c(C(=O)OC)c3[nH]c4ccccc4c3c(C)c2c1`, the result with Salmonidae was Active. Moreover, the Ka in [5] turned out to be 7.41 ×10⁵ /M; in data set [6], 14.8 ×10⁵ /M.
`CNC(=O)NCCCCNC(=O)c1c2cc[n+](C)cc2c(C)c2c1[nH]c1ccccc12`: the result in the data set on Salmonidae was Active. The IC50 is over 88 µM in data set [1] and 96 µM in data set [3]. Further, the 50% inhibitory concentration (IC50) at 72 h in data set [2] is over 100 µM.
On to `CNC(=O)NCCOCC[n+]1ccc2c(C)c3c(c(C)c2c1)c1cc(O)ccc1n3C`, for which, in the data set on Salmonidae, the outcome was Active. Also, the IC50 in [1] turned out to be 2.7 µM. Also, the IC50 at 72 h in data set [2] is 1.6 µM.
Take `CNC(=O)NCCOCC[n+]1ccc2c(C)c3[nH]c4ccccc4c3c(C)c2c1`: in the data set on Salmonidae, the result was Active. Also, the Ka turned out to be 3.59 ×10⁵ /M in [5], 9.9 ×10⁵ /M in [6], 9.92 ×10⁵ /M in data set [7] and 5.99 ×10⁵ /M in data set [8]. Also, in [9], the Ratio is 0.4 to 0.5.
For `CNC(=O)NCCCCC[n+]1ccc2c(C)c3c(c(C)c2c1)c1cc(O)ccc1n3C`, the Ka worked out at 15.8 ×10⁵ /M in [5], 28.5 ×10⁵ /M in [6], 28.5 ×10⁵ /M in [7] and 17.9 ×10⁵ /M in data set [8]. The Ratio in [9] lay in the range of 0.4 to 0.5.
In the case of `Cc1c2cc[n+](CCN)cc2c(C)c2c1[nH]c1ccccc12`, in the data set with Salmonidae, the result was Active. In addition, the IC50 turned out to be 3.2 µM in data set [1] and 6.58 µM in data set [3].
For `Cc1c2c[n+](C)ccc2c(C(=O)NCCNCCN)c2[nH]c3ccccc3c12`, the outcome with Salmonidae was Active. In data set [1], the IC50 is over 100 µM. Besides, the half-maximal inhibitory concentration (IC50) at 72 h in [2] was 86 µM.
